Source: US12723233B2, “Media and methods for differentiating natural killer cells” (STEMCELL Technologies Canada Inc., priority 2018, dated 2026)

Legend:
K562 target cells = assay: Calcein AM release cytotoxicity assay of differentiated CD56+ NK cells; type: cell-based; conditions: cells differentiated in the presence of 1 μM UM729, day 28; effector to target ratio 5:1, 4 hours
Method: CD56^+ NK cells were differentiated as described in Examples 1 and 2 in the presence of 1 μM UM729 and analyzed on day 28 for their cytotoxicity toward K562 target cells.
For the cytotoxicity assay, the in vitro generated CD56^+ NK cells were co-cultured with Calcein AM labeled K562 cells for 4 hours at a ratio of 5:1 for effector cells (NK cells) to target cells (K562 cells), and supernatants were analysed for the release of fluorescent Calcein from killed target cells.
Peripheral blood (PB) NK cells and Monocytes isolated using EasySep™ (STEMCELL Technologies, Catalogue #17955 and 19359, respectively) were also co-cultured with labelled K562 cells as positive and negative controls, respectively, at the same ratios described above.
To detect spontaneous release of calcein, control wells containing only calcein AM-labeled K562 target cells were set up. The labeled K562 cells were treated with 1% Triton™ X-100 to measure maximum release. After incubation, plates were centrifuged at 500×g for 5 minutes and 100 μL of supernatant was transferred to black plates and analyzed using a SpectraMax® microplate reader (excitation 485 nm/emission 530 nm). Results are expressed as % specific lysis: [(test release−spontaneous release)×100]/(maximum release−spontaneous release).

[1] = system: PSC-derived NK cell progenitors; assay: Differentiation of PSC-derived NK cell progenitors to CD56+ cells; type: cell-based, Human; conditions: PSC lines 1C, M001, H1, F016; UM729 during days 24 to 38
Method: Three induced pluripotent stem cell (iPSC) lines—WLS-1C, STiPSC M001, and STiPS F016—and one embryonic stem cell (ESC) line—H1 were maintained in mTeSR™ 1. The PSC were harvested and dissociated using accutase into single cell suspensions and were filtered using 37 μm reversible strainer (STEMCELL Technologies).
Single cell suspensions of PSC were seeded into AggreWell plates (STEMCELL Technologies) to form 500-cell aggregates. The seeded cells were cultured in a mesoderm differentiation medium and 10 μM Y027632 (STEMCELL Technologies). After 3 days (i.e. on day 3) in culture the medium was changed to induce hematopoietic lineage differentiation. After 7 days (i.e. on day 10) in culture the aggregates were harvested and dissociated using collagenase II and a trypsin-containing solution.
Dissociated cells were enriched for CD34^+ cells using EasySep™ Human CD34 Positive Selection Kit II (STEMCELL Technologies, catalogue #17856). […]
The cells were stained for CD56 essentially as described in Example 3 and analyzed for frequency of CD56^+ cells and yield of CD56^+ cells per 5×10^4 input PSC-derived CD34^+ cells. […]

[2] = system: sorted day 14 populations of NK cell progenitors; assay: Differentiation of sorted day 14 NK cell progenitor subsets to CD56+ NK cells, cultured another 14 days; type: cell-based, Human
From the text: CD34^+ CB cells were isolated and cultured as described in Example 1 up to the day 14 time point. NK cell progenitors derived from CB CD34^+ HSPCs after 14 days of culture were stained, essentially as described in Example 3, with antibodies against markers CD5, CD7, and CD56. CD56^− cells were gated and CD7^+CD5^−, CD7^+CD5^+, CD5^−CD7^− cells were sorted using a BD FACSAria Fusion fluorescence-activated cell sorter. To investigate which subset of the day 14 population of NK cell progenitors is targeted by pyrimidoindole compounds, the CD7^+CD5^−, CD7^+CD5^+ and CD7^−CD5^− sorted populations were each cultured for another 14 days in NK Cell Differentiation medium without or with UM729. CD34^+ CB cells were isolated and cultured as described in Example 1 up to the day 14 time point. NK cell progenitors derived from CB CD34^+ HSPCs after 14 days of culture were stained, essentially as described in Example 3, with antibodies against markers CD5, CD7, CD34, and CD56. CD56^− cells were gated and […], and CD34^− CD7^+CD5^− and CD34^−CD7^+CD5^+ were sorted using a BD FACSAria Fusion fluorescence-activated cell sorter. CD7 cells were sorted as a negative control. To investigate which subset of the day 14 population of NK cell progenitors is targeted by pyrimidoindole compounds, the CD34^+CD7^+CD5^− and CD34^+CD7^+CD5^+, and CD34^−CD7^+CD5^− and CD34^− CD7^+CD5^+ sorted populations were each cultured for another 14 days in NK Cell Differentiation medium with or without UM729.

[3] = sorted CD7+CD5+ cells, 14 days with UM729, three donors
[4] = sorted CD7+CD5− cells, 14 days with UM729, three donors
[5] = sorted CD34−CD7+CD5+ cells, 14 days with UM729
[6] = sorted CD34−CD7+CD5− cells, 14 days with UM729

## COC(=O)c1ccc2c(c1)[nH]c1ncnc(NCCCN3CCCCC3)c12 [UM729, methyl 4-((3-(piperidin-1-yl)propyl)amino)-9H-pyrimido[4,5-b]indole-7-carboxylate]
K562 target cells
  Cytotoxicity (killing ability) of differentiated NK cells toward K562 target cells: able to kill K562 target cells
[1]
  Frequency of CD56+ cells compared to absence of UM729: increased
  Yield of CD56+ cells per 5×10^4 input PSC-derived CD34+ cells compared to absence of UM729: increased
[2]; [3]
  Frequency of NK cells compared to culture conditions lacking UM729: higher
  Yield of NK cells compared to culture conditions lacking UM729: higher
[2]; [4]
  Frequency of NK cells compared to culture conditions lacking UM729: higher
  Yield of NK cells compared to culture conditions lacking UM729: higher
[2]; sorted CD7−CD5− cells, presence or absence of UM729
  Expansion and differentiation to NK cells: did not expand and differentiate to NK cells
[2]; sorted CD34+CD7+CD5− and CD34+CD7+CD5+ cells, 14 days with UM729
  Responsiveness of CD34+ NK progenitor cell subsets to UM729: do not appear responsive
[2]; [5]
  Frequency of NK cells compared to culture conditions lacking UM729: higher
  Yield of NK cells compared to culture conditions lacking UM729: higher
[2]; [6]
  Frequency of NK cells compared to culture conditions lacking UM729: higher
  Yield of NK cells compared to culture conditions lacking UM729: higher
